Reference: patent US20240024273A1, “TOPICAL ADMINISTRATION OF 2-(DIETHYLAMINO)ETHYL 2-(4-ISOBUTYLPHENYL)PROPRIONATE FOR TREATMENT OF DISEASES” (TECHFIELDS PHARMA CO., LTD., priority 2020, published 2024)

Key:
[1] = system: Mild to Moderate Osteoarthritis of the Knee; test: Phase 2 study: physician's global assessment of disease status; format: in vivo, human
Text: 3.9.3. Exploratory Efficacy Endpoints: • 1. Subject's global assessment of disease status of the target knee at 2, 4, 8, and 12 weeks of treatment; • 2. Investigator's global assessment of disease status of the target knee at 2, 4, 8, and 12 weeks of treatment; • 3. Subject's global assessment of response to therapy of the target knee at 2, 4, 8, and 12 weeks of treatment; • 4. Investigator's global assessment of response to therapy of the target knee at 2, 4, 8, and 12 weeks of treatment; • 5. Change from Baseline over time in VAS pain scores for the target knee from Daily Diary data; • 6. Amount of rescue medication (acetaminophen) consumed per day for target knee pain.
Data for the exploratory efficacy endpoints will be summarized using descriptive statistics.

[2] = In vitro half-life with animal skin; format: in vitro ADME; settings: read-out: in vitro T1/2 (converted)
[3] = system: mini pigs; test: 39-week GLP repeated dermal dose toxicity and toxicokinetics study with 4-week recovery; format: in vivo; settings: 5, 12.5 and 25 mg/kg dermal, 39 weeks

## CCN(CC)CCOC(=O)C(C)c1ccc(CC(C)C)cc1 (stereo not drawn) [2-(diethylamino)ethyl 2-(4-isobutylphenyl)propionate]
[1]; 8.75 mg/knee (BID)
  Physician's Global Assessment of Disease Status: Improved (percentage of patients who improved by 2 grades or more from baseline, or from 1 to 0): 10.5%
  Physician's Global Assessment of Disease Status: Worsened (percentage of patients who worsened by 2 grades or more from baseline, or from 3 to 4): 1.8%
  patients improved by 2 grades or more from baseline (physician's global assessment): 10.5%
[1]; 17.5 mg/knee (BID)
  Physician's Global Assessment of Disease Status: Improved (percentage of patients who improved by 2 grades or more from baseline, or from 1 to 0): 35.6%
  Physician's Global Assessment of Disease Status: Worsened (percentage of patients who worsened by 2 grades or more from baseline, or from 3 to 4): 1.7%
[1]; 35 mg/knee (BID)
  Physician's Global Assessment of Disease Status: Improved (percentage of patients who improved by 2 grades or more from baseline, or from 1 to 0): 30.9%
  Physician's Global Assessment of Disease Status: Worsened (percentage of patients who worsened by 2 grades or more from baseline, or from 3 to 4): 0%
[2]
  half-life: ~20 h
[3]
  local or systemic adverse effects: mini pigs with 4-week recovery was done and no test article-related local
